Patent US20170196859A1, “PHARMACEUTICAL COMPOSITION COMPRISING PYRAZINE CARBOXAMIDE COMPOUND AS ACTIVE INGREDIENT” (Astellas Pharma Inc., priority 2014, published 2017)

Columns and labels:
[1] = tested on: human acute myeloid leukemia cell line MV4-11 cells; assay: Proliferation inhibition, MV4-11 cells (CellTiter-Glo); type: cell-based; details: MV4-11, 72 h, 3 days culture
Protocol: MV4-11 is a cell line originated from human acute myeloid leukemia and the BTK expression has been confirmed (Mol. Cell Proteomics. 2009; 8(7):1751-1764). The human acute myeloid leukemia cell line MV4-11 cells (American Type Culture Collection, CRL-9591) cultured in an Iscove's Modified Dulbecco's Medium (Sigma) contain […] 10% bovine serum were seeded into 96 well plates. On the next day, DMSO solution of the test compound B at final concentrations from 1 nM to 10 μM or only DMSO (DMSO group) were added thereto to culture the cells at 37° C. in 5% CO2 for 3 days. Thereafter, the cell number was measured using a cell counting reagent (CellTiter-Glo (registered trademark) Luminescent Cell Viability Assay (Promega)). The cell proliferation inhibition rate was calculated as the measured value in the DMSO group set as 0% inhibition and the measured value in the well only with the medium on which the cells have not been seeded set as 100% inhibition.

[2] = tested on: human anaplastic large cell lymphoma cell line KARPAS-299 cells; assay: Proliferation inhibition, KARPAS-299 cells (CellTiter-Glo); type: cell-based; details: KARPAS-299, 72 h, 3 days culture
Protocol: KARPAS-299 is a cell line originated from human anaplastic large cell lymphoma and the activation of JAK 3 has been confirmed (Oncogene. 2002; 21:1038-1047). The human anaplastic large cell lymphoma cell line KARPAS-299 cells (DSMZ, ACC31) cultured in RPMI1640 medium (Sigma) containing a 10% bovine serum were seeded into 96 well plates. On the same day, DMSO solution of the test compound B at a final concentrations from 1 nM to 10 μM or only DMSO (DMSO group) were added thereto to culture the cells at 37° C. in 5% CO2 for 3 days. Thereafter, the cell number was measured using a cell counting reagent (CellTiter-Glo (registered trademark) Luminescent Cell Viability Assay (Promega)). The cell proliferation inhibition rate was calculated as the measured value in the DMSO group set as 0% inhibition and the measured value in the well only with the medium on which the cells have not been seeded set as 100% inhibition.

ITK kinase = target: T1, ITK kinase (Homo sapiens, UniProt Q08881); assay: ITK kinase inhibitory activity (Mobility Shift Assay); type: biochemical; details: ATP 1000 μM, read-out: inhibitory % against ITK kinase activity
T1 sequence (Q08881 1-620): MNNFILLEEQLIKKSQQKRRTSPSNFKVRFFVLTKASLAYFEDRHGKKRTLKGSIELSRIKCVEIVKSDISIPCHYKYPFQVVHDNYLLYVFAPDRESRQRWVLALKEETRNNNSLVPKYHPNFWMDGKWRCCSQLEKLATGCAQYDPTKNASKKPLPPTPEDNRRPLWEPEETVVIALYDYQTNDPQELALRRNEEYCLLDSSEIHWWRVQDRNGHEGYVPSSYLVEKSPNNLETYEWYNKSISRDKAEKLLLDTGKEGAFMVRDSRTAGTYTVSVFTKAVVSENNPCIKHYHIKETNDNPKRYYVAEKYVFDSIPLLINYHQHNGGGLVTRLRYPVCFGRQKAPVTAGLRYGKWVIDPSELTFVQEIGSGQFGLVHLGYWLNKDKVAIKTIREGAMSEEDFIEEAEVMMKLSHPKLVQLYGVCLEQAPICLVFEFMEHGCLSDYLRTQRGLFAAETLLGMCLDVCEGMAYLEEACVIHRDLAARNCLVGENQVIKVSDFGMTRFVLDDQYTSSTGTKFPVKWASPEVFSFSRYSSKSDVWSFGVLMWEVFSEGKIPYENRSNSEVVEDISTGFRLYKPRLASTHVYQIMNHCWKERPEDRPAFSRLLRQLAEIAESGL
Protocol: The ITK kinase inhibitory activity was evaluated using Mobility Shift Assay system.
The test compound B was dissolved in dimethyl sulfoxide (DMSO) to prepare a solution at a 100-fold concentration as compared to the test concentration. The solution was also 25-fold diluted with an assay buffer (20 mM HEPES, 0.01% Triton X-100, 1 mM DTT, pH 7.5) to obtain a test substance solution.
5 μL of the test compound B solution at a 4-fold concentration, prepared using the aforementioned assay buffer, and 10 μL of a ITK kinase solution at a 2-fold concentration were mixed within a well of a 384 well plate, and incubated at room temperature for 30 minutes. Continuously, 5 μL of a substrate peptide (Srctide, PEPTIDE INSTITUTE, INC. #AD-995)/ATP/MgCl2 solution at a 4-fold concentration was added thereto to perform the reaction at room temperature for 1 hour. The substrate peptide was used at a final concentration of 1000 nM, ATP at a final concentration of 1000 μM, and MgCl2 at a final concentration of 5 mM. Thereafter, 60 μL of a termination buffer (127 mM HEPES, 0.01% Triton X-100, 26.7 mM EDTA, 1% DMSO, pH 7.5) was added thereto to stop the reaction. The ITK kinase activity was calculated by quantifying a product conversion ratio obtained from the substrate peptide peak height and the product (phosphorylated substrate peptide) peak height with LabChip3000 (PerkinElmer). […]

[3] = tested on: human acute T cell lymphoma cell line Jurkat 6.1E cells; assay: Proliferation inhibition, Jurkat 6.1E cells (CellTiter-Glo); type: cell-based; details: 96 h, 4 days culture
Protocol: Jurkat 6.1E is a cell line originated from human acute T cell lymphoma and the ITK expression has been confirmed (Mol. Pharmacol. 2012; 82:938-947). The human acute T cell lymphoma cell line Jurkat 6.1E cells (European Collection of Cell Cultures, 88042803) cultured in RPMI1640 medium (Sigma) containing 10% bovine serum were seeded into 96 well plates. On the same day, DMSO solutions of the test compound B at a final concentrations from 1 nM to 10 μM or only DMSO (DMSO group) were added thereto to culture the cells at 37° C. in 5% CO2 for 4 days. Thereafter, the cell number was measured using a cell counting reagent (CellTiter-Glo (registered trademark) Luminescent Cell Viability Assay (Promega)). The cell proliferation inhibition rate was calculated as the measured value in the DMSO group set as 0% inhibition and the measured value in the well only with the medium on which the cells have not been inoculated set 100% inhibition.

C=CC(=O)N1CC[C@@H](Oc2nc(Nc3ccc(N4CCC(N5CCN(C)CC5)CC4)cc3)c(C(N)=O)nc2CC)C1 [test compound B, 5-{[(3R)-1-acryloylpyrrolidin-3-yl]oxy}-6-ethyl-3-({4-[4-(4-methylpiperazin-1-yl)piperidin-1-yl]phenyl}amino)pyrazine-2-carboxamide monomethanesulfonate]
IC50 [1]: 10 nM
IC50 [2]: 250 nM
inhibition at 0.001 µM (ITK kinase; 1 nM test compound): 29.5%
inhibition at 0.01 µM (ITK kinase; 10 nM test compound): 92.6%
IC50 [3]: 940 nM
